Reference: patent US10526276B2, “Dream neuronal calcium sensor-modulating compounds, and therapeutic uses thereof” (CONSEJO SUPERIOR DE INVESTIGACIONES CIENTÍFICAS, priority 2014, dated 2020)

Columns and labels:
Kv4.3 channels = biological target: T1, Kv4.3 channels (Homo sapiens, UniProt Q9UK17); assay: Patch-clamp in CHO cells transiently transfected with Kv4.3 only; type: cell-based; details: 100 nM, FIG. 1B
T1 construct: expressed in transfected cells; host or cells: CHO cells, transient transfection
T1 sequence (Q9UK17 1-655): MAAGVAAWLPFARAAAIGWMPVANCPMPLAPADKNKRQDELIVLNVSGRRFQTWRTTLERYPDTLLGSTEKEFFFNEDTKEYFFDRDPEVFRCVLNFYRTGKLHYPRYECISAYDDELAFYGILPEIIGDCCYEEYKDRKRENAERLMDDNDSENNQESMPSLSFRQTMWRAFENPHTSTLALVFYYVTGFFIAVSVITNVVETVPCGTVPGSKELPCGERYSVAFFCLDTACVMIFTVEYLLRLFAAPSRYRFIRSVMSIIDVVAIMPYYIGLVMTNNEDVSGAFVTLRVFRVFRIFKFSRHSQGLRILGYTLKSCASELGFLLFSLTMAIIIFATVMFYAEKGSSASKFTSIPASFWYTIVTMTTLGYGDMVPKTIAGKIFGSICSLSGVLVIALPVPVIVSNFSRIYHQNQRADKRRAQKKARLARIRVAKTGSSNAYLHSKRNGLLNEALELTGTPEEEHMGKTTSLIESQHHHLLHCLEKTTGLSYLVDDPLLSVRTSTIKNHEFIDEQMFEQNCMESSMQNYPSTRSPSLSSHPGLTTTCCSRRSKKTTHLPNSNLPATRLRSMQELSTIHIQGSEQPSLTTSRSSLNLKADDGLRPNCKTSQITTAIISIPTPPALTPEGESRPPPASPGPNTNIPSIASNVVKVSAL
Description: (§1) The new compounds synthesised according to this invention have been evaluated in vitro in voltage-binding assays in CHO cells transiently transfected with cDNA encoding Kv4.3 only or Kv4.3 in the presence of DREAM (Kv4.3+DREAM) using the patch-clamp technique. […] For some of the compounds evaluated, this effect is selective and is only observed in the presence of the DREAM channel modulator.

[1] = test system: STHdh^Q111/Q111 cells infected with lentivirus expressing the complete human DREAM protein (Q111DR); assay: Neuroprotection against H2O2-mediated necrosis (LDH release) in Q111DR cells; type: cell-based, mouse; details: compound 100 nM; H2O2 0.66 mM; FIG. 2
Description: FIG. 2. […] RP: Repaniglida.
(§2) In an immortalized cell line of mouse striatum infected with lentivirus STHdh^Q111/Q111 expressing the complete human DREAM protein (Q111DR), the neuroprotective effect of the compounds was tested against necrosis mediated by H2O2 and apoptosis mediated by staurosporine.

[2] = test system: STHdh^Q111/Q111 cells infected with lentivirus expressing the complete human DREAM protein (Q111DR); assay: Neuroprotection against staurosporine-mediated apoptosis (caspase-3 activation) in Q111DR cells; type: cell-based, mouse; details: compound 100 nM, 1 h pre-incubation; staurosporine 1 μM for 5 h; compared with repaglinide (RP); FIG. 3
Description: FIG. 3. Analysis of the neuroprotective effect of compounds 9, 16, 22, 23 and 62 (100 nM) against the activation of caspase-3 mediated by staurosporine in ^Q111/Q111 cells infected with lentivirus expressing the complete human DREAM protein. The caspase-3 activity was measured after 1 h of pre-incubation of the compounds (100 nM) and subsequent exposure for 5 h of staurosporine at 1 μM. RP: Repaniglida.
as §2

Kv4.3+DREAM channels = biological target: T2, Kv4.3+DREAM channels (Homo sapiens, UniProt Q9UK17+Q9Y2W7); assay: Patch-clamp in CHO cells transiently transfected with Kv4.3 in the presence of DREAM; type: cell-based; details: 100 nM; for inhibitory effect of the Kv4.3+DREAM current (% decrease of the amount of charge passing through the membrane): CHO cells, FIG. 1B
T2 construct: expressed in transfected cells; host or cells: CHO cells, transient transfection
T2 sequence (Q9Y2W7 1-256): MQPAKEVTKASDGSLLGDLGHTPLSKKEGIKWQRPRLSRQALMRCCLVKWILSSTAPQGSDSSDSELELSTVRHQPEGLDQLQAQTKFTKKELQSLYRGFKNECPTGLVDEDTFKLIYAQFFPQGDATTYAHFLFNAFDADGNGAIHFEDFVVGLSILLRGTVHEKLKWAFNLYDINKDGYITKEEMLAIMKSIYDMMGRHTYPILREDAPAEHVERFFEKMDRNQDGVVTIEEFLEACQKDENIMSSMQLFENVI
T2 sequence (Q9UK17 1-655): T1 sequence (Q9UK17 1-655)
Description: as §1

COC(=O)[C@@H](Cc1cn(C(c2ccccc2)(c2ccccc2)c2ccccc2)cn1)NC(=O)Cc1ccc(Cl)c(Cl)c1 [Compound 62, (2R)-2-[2-(3,4-dichlorophenyl)acetylamino]-3-(1-trityl-1H-imidazol-4-yl)methyl propanoate]
inhibitory effect of the Kv4.3 current in the absence of DREAM (% decrease of the amount of charge passing through the membrane) (Kv4.3 channels): similarly inhibits the current generated by the Kv4.3 channels
release of LDH (lactate dehydrogenase) mediated by H2O2, neuroprotective effect [1]: lowest LDH release
activation of caspase-3 mediated by staurosporine, neuroprotective effect [2]: lowest activation of caspase-3
inhibitory effect of the Kv4.3+DREAM current (% decrease of the amount of charge passing through the membrane) (Kv4.3+DREAM channels): similarly inhibits the current generated by the Kv4.3 channels to that of the Kv4.3 channels in the presence of DREAM
selectivity of Kv4.3 current inhibition for the presence of DREAM (Kv4.3+DREAM channels; Kv4.3+DREAM versus Kv4.3 only): has no selectivity

O=C(Cc1ccc(Cl)c(Cl)c1)Nc1ccc(-c2ccccc2)cc1C(=O)O [Compound 42, 2-[2-(3,4-dichlorophenyl)acetylamino]-5-phenylbenzoic acid]
inhibitory effect of the Kv4.3 current in the absence of DREAM (% decrease of the amount of charge passing through the membrane) (Kv4.3 channels): only inhibit the Kv4.3 current in the presence of DREAM
inhibitory effect of the Kv4.3+DREAM current (% decrease of the amount of charge passing through the membrane) (Kv4.3+DREAM channels): only inhibit the Kv4.3 current in the presence of DREAM

CCCCc1ccc(-c2ccc(C(=O)O)c(NC(=O)Cc3ccc(Cl)c(Cl)c3)c2)cc1 [Compound 35, 2-[2-(3,4-dichlorophenyl)acetylamino]-4-(4′-n-butylphenyl)benzoic acid]
inhibitory effect of the Kv4.3 current in the absence of DREAM (% decrease of the amount of charge passing through the membrane) (Kv4.3 channels): only inhibit the Kv4.3 current in the presence of DREAM
inhibitory effect of the Kv4.3+DREAM current (% decrease of the amount of charge passing through the membrane) (Kv4.3+DREAM channels): only inhibit the Kv4.3 current in the presence of DREAM
